For series [1], the system named is neutrophils and monocytes. Conditions: cited from earlier work.
The subject of series [2] is IL-1, TNF, and leukotrienes. Particulars: cited from earlier work.
Series [3] concerns HCT-116 colorectal carcinoma. Briefly: LIVE/DEAD cell mediated cytotoxicity assay: PBMC killing of KRAS-mutated tumor cells. In kind it is cell-based, human. The method, then: The tumor target line HCT-116 colorectal carcinoma (American Type Culture Collection, Manassas, Va., ATCC No. CCL-247) was maintained in McCoy's 5A media supplemented with 10% fetal calf serum (Hyclone Laboratories, Inc., Logan, Utah).
Cytotoxicity was measured with the LIVE/DEAD Cell Mediated Cytotoxicity Kit (Invitrogen, Carlsbad, Calif.) according to manufacturer's instructions. Briefly, the HCT-116 target cells were stained with 1:80 dilution of DiOC18 in Phosphate Buffered Saline (PBS, Mediatech Inc. Manassas, Va.) and incubated at 37° C. for 30 minutes. The cells were then washed twice in PBS and resuspended at 2×10^6 cells/mL in complete media containing 10% human serum.
DiOC labeled target cells incubated with ERBITUX dilutions for 30 minutes at 37° C. In each well of a 96-well plate, 1.25×10^6 freshly isolated peripheral blood mononuclear cells (PBMC) along with IMPRIME-PGG dilution or 50 ng/ml IL-2 (R&D Systems, Minneapolis, Minn.) in of total volume of 100 μl media incubated at 37° C. for 30 minutes. 5×10^4 targets added to wells in 25 μl of media and assay incubated overnight at 37° C. Following incubation, target cell viability measured by staining with 125 μl of propidium iodide (PI) viability reagent diluted 1:5000 from stock solution provided in the assay kit. Cells incubated for 30 minutes at 37° C. before analysis on LSR II flow cytometer (BD Biosciences, San Jose, Calif.) to determine percentage of DiOC stained targets that intercalate the PI stain, indicating cell death.

A short description of series [4]: Physicochemical properties of purified soluble β-glucan. The text has this: The soluble β-glucan has an average molecular weight between about 120,000 Da and about 205,000 Da and a molecular weight distribution (polydispersity) of not more than 2.5 as determined by HR-GPC with multiple angle light scattering (HR-GPC/MALS) and differential refractive index detection. Powder X-ray diffraction and magic-angle spinning NMR determined that the product consists of polymeric chains associated into triple helices. The soluble β-glucan is typically uncharged and therefore has no pKa.

Regarding “poly-(1-6)-β-D-glucopyranosyl-(1-3)-β-D-glucopyranose [soluble β-glucan]”, the “number of neutrophils and monocytes and their direct antitumor activity (phagocytosis and microbial killing)” value in series [1] is “increase the number of neutrophils and monocytes as well as their direct antitumor activity”. For the same substance, the “production of biochemical mediators (IL-1, TNF, leukotrienes)” value in series [2] is listed as “does not stimulate the production of biochemical mediators”. The “ability of human PBMCs to kill KRAS-mutated tumor cells” value in series [3] (FIG. 2, flow cytometry data, in vitro) is “enhances the ability of human peripheral blood mononuclear cells (PBMCs) to kill KRAS-mutated tumor cells in vitro”. Further, the “ability of human PBMCs to kill KRAS-mutated tumor cells” value in series [3] (FIG. 3, in vitro, N=1, E:T=25:1) is reported as “enhances the ability of human peripheral blood mononuclear cells (PBMCs) to kill KRAS-mutated tumor cells in vitro”. For the same substance, the “antitumor activity in the presence of an EGF-r antagonist antibody” value in series [3] (FIG. 4, with ERBITUX, N=1, E:T=25:1) was “exhibits greater antitumor activity in the presence of an EGF-r antagonist antibody”. In series [4], the pKa result is “has no pKa” and the solubility in water result was “soluble in water independent of pH”.
